Patent publication US20180326055A1, “NANOSTRUCTURE” (RIKEN, priority 2017, published 2018)

System: HeLa cell
Assay: Delivery of PI by nanocapsule into cells (fluorescent microscope)
Assay type: cell-based
Conditions: incubated 1 hour
Experimental: PI-encapsulating nanocapsule was prepared in the same manner as described in Example 2. The PI-encapsulating nanocapsule dispersion was incubated with HeLa cell for 1 hour and washed with a buffer solution several times to remove the nanocapsule and free PI outside completely. The location of PI was evaluated by fluorescent microscope observation. PI alone incubated with HeLa cell for 1 hour was used as a negative control.

Question: With `CC[N+](C)(CC)CCC[n+]1c(-c2ccccc2)c2cc(N)ccc2c2ccc(N)cc21.[I-].[I-]` [PI, propidium iodide] as the molecule, how does the “uptake of PI by cells” value read?
Answer: The value was “not taken up by cells”.
